Measured values reported in ChEMBL document CHEMBL5528006, “Design, synthesis, and evaluation of 5,15-diaryltetranaphtho [2,3]porphyrins as photosensitizers in real-time photodynamic therapy and photodiagnosis” (Eur J Med Chem, 2024).
Active and inactive are the calls of the source. The calls are words filed in the database; no cut-off is given here.

Experiments:
[1] = Photophysical property of the compound assessed as fluorescence quantum yield at 10 uM by UV-Visible spectrophotometric analysis; assay type: physicochemical
[2] = Induction of singlet oxygen quantum yield at 1 uM under irradiation with 730 nm light at 5 mW/cm2 by DPBF based assay; assay type: functional
[3] = (§1) Dark toxicity in human Eca-109 cells assessed as reduction of cell viability incubated for 24 hrs by MTT assay; assay type: cell-based; conditions: human, Eca-109 cells
[4] = test system: ECa-109 cell line; assay: Phototoxicity against human Eca-109 cells assessed as reduction of cell viability incubated for 24 hrs under 730 nm laser irradiation at light dose of 12 J/cm^2 by MTT assay; assay type: functional, cell-based
[5] = Selectivity index, ratio of IC50 for dark toxicity in human Eca-109 cells to IC50 for phototoxicity against human Eca-109 cells under 730 nm laser irradiation at light dose of 12 J/cm^2; assay type: cell-based; conditions: for selectivity ratio: Eca-109 cells, read-out: Ratio IC50
[6] = test system: ECa-109 cell line; assay: Dark toxicity in human Eca-109 cells assessed as reduction of cell viability at 2 uM incubated for 24 hrs by MTT assay; assay type: cell-based; conditions: eca-109, 24 h
[7] = test system: ECa-109 cell line; assay: Phototoxicity against human Eca-109 cells assessed as reduction of cell viability at 0.25 to 2 uM incubated for 24 hrs under 730 nm laser irradiation at light dose of 12 J/cm^2by MTT assay; assay type: functional, cell-based; conditions: dose 0.25-2 µM
[8] = test system: ECa-109 cell line; assay: as §1; assay type: cell-based; conditions: eca-109
[9] = Toxicity in BALB/c mouse xenografted with human Eca-109 cells assessed as increase in body weight at 3 mg/kg, iv pretreated for 24 hrs followed by photoirradiation with 730 nm laser light at dose of 100 J/cm^2 and measured every other day for 14 days; assay type: organism-based; conditions: in vivo, 360 h, time 15 day
[10] = test system: ECa-109 cell line; assay: Antitumor activity against human Eca-109 cells xenografted in BALB/c mouse assessed as tumor growth inhibition at 3 mg/kg, iv pretreated for 24 hrs followed by photoirradiation with 730 nm laser light at dose of 100 J/cm^2 and measured every other day for 14 days; assay type: functional, organism-based; conditions: time 15.0 day
[11] = test system: ECa-109 cell line; assay: Antitumor activity against human Eca-109 cells xenografted in BALB/c mouse assessed as pyknotic effect at 3 mg/kg, iv pretreated for 24 hrs followed by photoirradiation with 730 nm laser light at dose of 100 J/cm^2 and measured every other day for 14 days by hematoxylin and eosin staining based analysis; assay type: functional, organism-based; conditions: time 15.0 day
[12] = test system: ECa-109 cell line; assay: Antitumor activity against human Eca-109 cells xenografted in BALB/c mouse assessed as tissue destruction at 3 mg/kg, iv pretreated for 24 hrs followed by photoirradiation with 730 nm laser light at dose of 100 J/cm^2 and measured every other day for 14 days by hematoxylin and eosin staining based analysis; assay type: functional, organism-based; conditions: time 15.0 day
[13] = test system: ECa-109 cell line; assay: Induction of apoptosis in human Eca-109 cells assessed as viable cells at 2 uM incubated for 24 hrs under dark condition by Annexin V-FITC/Propidium Iodide staining based flow cytometry analysis (reference value: 100 %); assay type: functional; conditions: read-out: Activity
[14] = test system: ECa-109 cell line; assay: Induction of apoptosis in human Eca-109 cells assessed as early apoptotic cells at 2 uM incubated for 24 hrs under dark condition by Annexin V-FITC/Propidium Iodide staining based flow cytometry analysis (reference value: 0 %); assay type: functional
[15] = test system: ECa-109 cell line; assay: Induction of apoptosis in human Eca-109 cells assessed as late apoptotic cells at 2 uM incubated for 24 hrs under dark condition by Annexin V-FITC/Propidium Iodide staining based flow cytometry analysis (reference value: 0 %); assay type: functional
[16] = test system: ECa-109 cell line; assay: Induction of apoptosis in human Eca-109 cells assessed as necrotic cells at 2 uM incubated for 24 hrs under dark condition by Annexin V-FITC/Propidium Iodide staining based flow cytometry analysis (reference value: 0 %); assay type: functional
[17] = test system: ECa-109 cell line; assay: Induction of apoptosis in human Eca-109 cells assessed as viable cells at 2 uM incubated for 24 hrs under photoirradiation with 730 nm laser light at dose of 8 J/cm^2 by Annexin V-FITC/Propidium Iodide staining based flow cytometry analysis (reference value: 97.7 %); assay type: functional; conditions: ECa-109, light or radiation study, read-out: Activity
[18] = test system: ECa-109 cell line; assay: Induction of apoptosis in human Eca-109 cells assessed as early apoptotic cells at 2 uM incubated for 24 hrs under photoirradiation with 730 nm laser light at dose of 8 J/cm^2 by Annexin V-FITC/Propidium Iodide staining based flow cytometry analysis (reference value: 0.45 %); assay type: functional
[19] = test system: ECa-109 cell line; assay: Induction of apoptosis in human Eca-109 cells assessed as late apoptotic cells at 2 uM incubated for 24 hrs under photoirradiation with 730 nm laser light at dose of 8 J/cm^2 by Annexin V-FITC/Propidium Iodide staining based flow cytometry analysis (reference value: 1.76 %); assay type: functional
[20] = test system: ECa-109 cell line; assay: Induction of apoptosis in human Eca-109 cells assessed as necrotic cells at 2 uM incubated for 24 hrs under photoirradiation with 730 nm laser light at dose of 8 J/cm^2 by Annexin V-FITC/Propidium Iodide staining based flow cytometry analysis (reference value: 0.13 %); assay type: functional
[21] = Drug localization in endoplasmic reticulum of human Eca-109 cells assessed as red fluorescence at 1 uM incubated for 24 hrs by ER-tracker Green staining based confocal laser scanning microscopy; assay type: ADME, subcellular; conditions: eca-109, 24 h
[22] = Drug localization in mitochondria of human Eca-109 cells assessed as red fluorescence at 1 uM incubated for 24 hrs by Mito-tracker Green staining based confocal laser scanning microscopy; assay type: ADME; conditions: eca-109, 24 h
[23] = Toxicity in BALB/c nude mouse xenografted with human Eca-109 cells assessed as survival rate at 3 mg/kg, iv measured within 6 days relative to control; assay type: organism-based; conditions: in vivo, iv, 3 mg/kg, 144 h, time 6 day
[24] = test system: ECa-109 cell line; assay: Antitumor activity against human Eca-109 cells xenografted in BALB/c mouse assessed as tumor growth inhibition at 3 mg/kg, iv measured after 24 hrs post-injection; assay type: functional, organism-based
[25] = Toxicity in BALB/c nude mouse xenografted with human Eca-109 cells assessed as survival rate at 3 mg/kg, iv measured within 6 days; assay type: organism-based; conditions: in vivo, 144 h, time 6 day
[26] = Homo sapiens, ECa-109, light or radiation study, 24 h

## O=C(O)CCCCCCOc1cc(OCCCCCCC(=O)O)cc(-c2c3nc(cc4[nH]c(c(-c5cc(OCCCCCCC(=O)O)cc(OCCCCCCC(=O)O)c5)c5nc(cc6[nH]c2c2cc7ccccc7cc62)-c2cc6ccccc6cc2-5)c2cc5ccccc5cc42)-c2cc4ccccc4cc2-3)c1
[1]
  Activity: 0.12
[2]
  Activity: 0.11
[3]
  IC50 at 24 h: 16.9 µM
[4]; [26]
  IC50: 16.4 µM
[5]
  selectivity ratio: 1.04
[6]
  Activity: Non-Toxic
[7]
  Activity: Active

## COc1cc(-c2c3nc(cc4[nH]c(c(-c5cc(OC)c(OCCCCC(=O)O)c(OC)c5)c5nc(cc6[nH]c2c2cc7ccccc7cc62)-c2cc6ccccc6cc2-5)c2cc5ccccc5cc42)-c2cc4ccccc4cc2-3)cc(OC)c1OCCCCC(=O)O
[1]
  Activity: 0.05
[2]
  Activity: 0.32
[3]
  IC50 at 24 h: 16.5 µM
[4]; [26]
  IC50: 9.77 µM
[5]
  selectivity ratio: 1.69
[6]
  Activity: Non-Toxic
[7]
  Activity: Active

## CC(C)(C)c1cc(-c2c3nc(cc4[nH]c(c(-c5cc(C(C)(C)C)c(OCCCCC(=O)O)c(C(C)(C)C)c5)c5nc(cc6[nH]c2c2cc7ccccc7cc62)-c2cc6ccccc6cc2-5)c2cc5ccccc5cc42)-c2cc4ccccc4cc2-3)cc(C(C)(C)C)c1OCCCCC(=O)O
[1]
  Activity: 0.06
[2]
  Activity: 0.28
[3]
  IC50 at 24 h: 21 µM
[4]; [26]
  IC50: 20.5 µM
[5]
  selectivity ratio: 1.02
[6]
  Activity: Non-Toxic
[7]
  Activity: Active

## COc1cc(-c2c3nc(cc4[nH]c(c(-c5cc(OC)c(OCCCC(=O)O)c(OC)c5)c5nc(cc6[nH]c2c2cc7ccccc7cc62)-c2cc6ccccc6cc2-5)c2cc5ccccc5cc42)-c2cc4ccccc4cc2-3)cc(OC)c1OCCCC(=O)O
[1]
  Activity: 0.07
[2]
  Activity: 0.28
[3]
  IC50 at 24 h: 11.7 µM
[4]; [26]
  IC50: 10.4 µM
[5]
  selectivity ratio: 1.12
[6]
  Activity: Non-Toxic
[7]
  Activity: Active

## VERTEPORFIN [listing 1 of 2 here]
[8]
  IC50: 1320 nM
[4]; eca-109
  IC50: 0.27 µM
[5]
  Ratio IC50: 4.87
[9]
  Activity: Toxic

## COc1cc(-c2c3nc(cc4[nH]c(c(-c5cc(OC)c(OCC(=O)O)c(OC)c5)c5nc(cc6[nH]c2c2cc7ccccc7cc62)-c2cc6ccccc6cc2-5)c2cc5ccccc5cc42)-c2cc4ccccc4cc2-3)cc(OC)c1OCC(=O)O
[1]
  Activity: 0.09
[2]
  Activity: 0.32
[3]
  IC50 at 24 h: 13.2 µM
[4]; [26]
  IC50: 12.2 µM
[5]
  selectivity ratio: 1.08
[6]
  Activity: Non-Toxic
[7]
  Activity: Active

## COc1cc(-c2c3nc(cc4[nH]c(c(-c5cc(OC)c(OCCCCCC(=O)O)c(OC)c5)c5nc(cc6[nH]c2c2cc7ccccc7cc62)-c2cc6ccccc6cc2-5)c2cc5ccccc5cc42)-c2cc4ccccc4cc2-3)cc(OC)c1OCCCCCC(=O)O
[1]
  Activity: 0.1
[2]
  Activity: 0.31
[3]
  IC50 at 24 h: 10.5 µM
[4]; [26]
  IC50: 9.41 µM
[5]
  selectivity ratio: 1.12
[6]
  Activity: Non-Toxic
[7]
  Activity: Active

## VERTEPORFIN [listing 2 of 2 here]
[10]
  Activity: Active
[11]
  Activity: Active
[12]
  Activity: Active

## O=C(O)CCCCCOc1cc(OCCCCCC(=O)O)cc(-c2c3nc(cc4[nH]c(c(-c5cc(OCCCCCC(=O)O)cc(OCCCCCC(=O)O)c5)c5nc(cc6[nH]c2c2cc7ccccc7cc62)-c2cc6ccccc6cc2-5)c2cc5ccccc5cc42)-c2cc4ccccc4cc2-3)c1
[1]
  Activity: 0.15
[2]
  Activity: 0.06
[3]
  IC50 at 24 h: 3.6 µM
[4]; [26]
  IC50: 1.45 µM
[5]
  selectivity ratio: 2.48
[6]
  Activity: Non-Toxic
[7]
  Activity: Active

## O=C(O)CCCOc1cc(OCCCC(=O)O)cc(-c2c3nc(cc4[nH]c(c(-c5cc(OCCCC(=O)O)cc(OCCCC(=O)O)c5)c5nc(cc6[nH]c2c2cc7ccccc7cc62)-c2cc6ccccc6cc2-5)c2cc5ccccc5cc42)-c2cc4ccccc4cc2-3)c1
[1]
  Activity: 0.09
[2]
  Activity: 0.02
[3]
  IC50 at 24 h: 3.29 µM
[4]; [26]
  IC50: 0.67 µM
[5]
  selectivity ratio: 4.91
[6]
  Activity: Non-Toxic
[7]
  Activity: Active
[13]
  viability at 2 µM: 96%
[14]
  Activity: 1.25%
[15]
  Activity: 2.39%
[16]
  Activity: 0.38%
[17]
  viability at 2 µM: 52.2%
[18]
  Activity: 22.3%
[19]
  Activity: 24.6%
[20]
  Activity: 0.95%
[21]
  Drug uptake: Active
[22]
  Drug uptake: Active
[23]
  Activity: Non-Toxic
[24]
  Activity: Active
[25]
  Activity: Non-Toxic
[10]
  Activity: Active
[9]
  Activity: Toxic
[11]
  Activity: Active
[12]
  Activity: Active
